Source: the NIST ThermoML archive (doi:10.1021/je030132i)

Assay: xn = mol fraction of the nth substance listed
Details: 101.3 kPa, Liquid; for viscosity: Capillary tube (Ostwald / Ubbelohde) method; for mass density: Vibrating tube method

CC(O)CNCC(C)O (configuration not stated) [N-(2-hydroxypropyl)-2-hydroxy-1-propanamine] + O
Details | mass density [kg/m3] | viscosity [mPa·s]
298.15 K, x1 = 0.02 | 1005.22 | 1.645
298.15 K, x1 = 0.0498 | 1015.93 | 3.723
298.15 K, x1 = 0.0701 | 1021.72 | 6.06
298.15 K, x1 = 0.1001 | 1027.13 | 11.55
298.15 K, x1 = 0.1999 | 1030.9 | 55.69
298.15 K, x1 = 0.3006 | 1027.13 | 166.1
298.15 K, x1 = 0.3963 | 1022.42 | 338.7
298.15 K, x1 = 0.5012 | 1017.79 | 613
298.15 K, x1 = 0.5957 | 1014.09 | 861
298.15 K, x1 = 0.7034 | 1010.66 | 1142
298.15 K, x1 = 0.8029 | 1008.07 | 1326
298.15 K, x1 = 0.9016 | 1006.28 | 1478
313.15 K, x1 = 0.02 | 999.64 | 1.112
313.15 K, x1 = 0.0498 | 1008.66 | 2.218
313.15 K, x1 = 0.0701 | 1013.2 | 3.335
313.15 K, x1 = 0.1001 | 1017.4 | 5.56
313.15 K, x1 = 0.1999 | 1019.77 | 20.63
313.15 K, x1 = 0.3006 | 1016.15 | 46.9
313.15 K, x1 = 0.3963 | 1011.45 | 87.7
313.15 K, x1 = 0.5012 | 1006.84 | 139.1
313.15 K, x1 = 0.5957 | 1003.2 | 184.6
313.15 K, x1 = 0.7034 | 999.62 | 229.9
313.15 K, x1 = 0.8029 | 997.1 | 264.6
313.15 K, x1 = 0.9016 | 995.03 | 290.7
318.65 K, x1 = 0.02 | 997.52 | 0.992
318.65 K, x1 = 0.0498 | 1006.43 | 1.914
318.65 K, x1 = 0.0701 | 1010.34 | 2.776
318.65 K, x1 = 0.1001 | 1014 | 4.6
318.65 K, x1 = 0.1999 | 1015.54 | 15.21
318.65 K, x1 = 0.3006 | 1011.9 | 32.42
318.65 K, x1 = 0.3963 | 1007.24 | 58.7
318.65 K, x1 = 0.5012 | 1002.82 | 88.1
318.65 K, x1 = 0.5957 | 999.15 | 114.5
318.65 K, x1 = 0.7034 | 995.55 | 140
318.65 K, x1 = 0.8029 | 993.04 | 159.5
318.65 K, x1 = 0.9016 | 990.99 | 174.2
318.65 K, x1 = 1 | 988.22 | 186.6
323.15 K, x1 = 0.02 | 995.02 | 0.907
323.15 K, x1 = 0.0498 | 1003.09 | 1.684
323.15 K, x1 = 0.0701 | 1006.95 | 2.408
323.15 K, x1 = 0.1001 | 1010.46 | 3.78
323.15 K, x1 = 0.1999 | 1012.04 | 12.06
323.15 K, x1 = 0.3006 | 1008.24 | 24.56
323.15 K, x1 = 0.3963 | 1003.75 | 42.8
323.15 K, x1 = 0.5012 | 999.39 | 63.37
323.15 K, x1 = 0.5957 | 995.71 | 79.93
323.15 K, x1 = 0.7034 | 992.23 | 96.22
323.15 K, x1 = 0.8029 | 989.58 | 108.7
323.15 K, x1 = 0.9016 | 987.51 | 118
323.15 K, x1 = 1 | 984.9 | 125.7
333.15 K, x1 = 0.02 | 989.76 | 0.733
333.15 K, x1 = 0.0498 | 996.93 | 1.355
333.15 K, x1 = 0.0701 | 1000.34 | 1.816
333.15 K, x1 = 0.1001 | 1003.16 | 2.719
333.15 K, x1 = 0.1999 | 1004.03 | 7.5
333.15 K, x1 = 0.3006 | 1000.17 | 14.15
333.15 K, x1 = 0.3963 | 995.77 | 22.89
333.15 K, x1 = 0.5012 | 991.52 | 32.12
333.15 K, x1 = 0.5957 | 987.88 | 39.31
333.15 K, x1 = 0.7034 | 984.45 | 46.32
333.15 K, x1 = 0.8029 | 981.79 | 51.38
333.15 K, x1 = 0.9016 | 979.72 | 55.03
333.15 K, x1 = 1 | 977.3 | 57.99
343.15 K, x1 = 0.02 | 983.93 | 0.621
343.15 K, x1 = 0.0498 | 990.37 | 1.061
343.15 K, x1 = 0.0701 | 993.22 | 1.412
343.15 K, x1 = 0.1001 | 995.55 | 2.042
343.15 K, x1 = 0.1999 | 995.78 | 5.05
343.15 K, x1 = 0.3006 | 991.86 | 8.7
343.15 K, x1 = 0.3963 | 987.44 | 13.34
343.15 K, x1 = 0.5012 | 983.33 | 17.88
343.15 K, x1 = 0.5957 | 979.75 | 21.19
343.15 K, x1 = 0.7034 | 976.35 | 24.42
343.15 K, x1 = 0.8029 | 973.95 | 26.64
343.15 K, x1 = 0.9016 | 971.72 | 28.29
343.15 K, x1 = 1 | 969.58 | 29.55
